± gives the expanded uncertainty stated by the source.
Assays:
[1] = Liquid, Ebulliometric method (Recirculating still)
[2] = Boiling temperature at pressure P; conditions: 101.33 kPa; Liquid; Ebulliometric method (Recirculating still)

CN(CCO)CCO [N-methyldiethanolamine]
[1]
Conditions	vapor or sublimation pressure [kPa]
467.34 K	20 ± 0.5
467.4 K	20 ± 0.5
479.37 K	30 ± 0.69
479.4 K	30 ± 0.69
488.14 K	40 ± 0.82
488.17 K	40 ± 0.82
520.28 K	101.3 ± 2

OCCO [1,2-ethanediol]
[1]
Conditions	vapor or sublimation pressure [kPa]
422.75 K	20 ± 0.46
422.8 K	20 ± 0.46
433.66 K	30 ± 0.63
433.71 K	30 ± 0.63
441.66 K	40 ± 0.76
441.7 K	40 ± 0.76
470.47 K	101.3 ± 2

CNCCO [2-(methylamino)ethanol]
[1]
Conditions	vapor or sublimation pressure [kPa]
388 K	20 ± 0.43
388.04 K	20 ± 0.43
397.89 K	30 ± 0.6
397.95 K	30 ± 0.6
405.45 K	40 ± 0.74
405.48 K	40 ± 0.74
431.2 K	101.3 ± 2

Conditions	Boiling temperature at pressure P [°C]
[2]	158.1 ± 0.2

From the NIST ThermoML archive (doi:10.1021/je400373d)
